Data: US4686283A, “Analogs of transforming and epidermal growth factor fragments for therapy and diagnosis” (Syntex (U.S.A.) Inc., priority 1985, dated 1987)
Where a SMILES comes first, the peptide text is derived from it. Bridges are numbered along the chain shown (N, C = ends).

How the values were obtained:
[1] = biological target: T1, EGF receptors (Mus musculus, UniProt Q01279); experiment: Competitive antagonism of 125I-EGF binding to LE II cells (Scatchard plots); design: species or system Murine; conditions: in the presence of 20 μg/ml peptide, 4° C.; for apparent association constant for EGF: lower = more effective competitor
T1 construct: endogenous in cells; host or cells: LE II murine lung endothelial cells
Experimental: Murine lung endothelial cells identified as LE II were grown to confluence in 24 well cluster dishes in Dulbecco's minimal essential medium (DMEM) containing 10% fetal calf serum. Cells were washed twice with DMEM containing 1% bovine serum albumin and buffered at pH 7.4 with 50 mM Hepes buffer (DMEM-BSA). […] At the end of the incubation period, cells were washed three times with DMEM-BSA, lysed in 0.1N sodium hydroxide and cell-associated radioactivity was determined in a gamma counter.

[2] = system: LE II cells; experiment: Inhibition of EGF-induced cell proliferation ([3H]-methylthymidine incorporation); format: cell-based, Murine; conditions: induced by 2 × 10^-9 M EGF; for % Enhancement of thymidine incorporation: control 380 ± 20
Experimental: (§1) LE II cells were grown to confluence in 48 well cluster dishes and starved for two days in DMEM containing 0.5% fetal calf serum.
(§2) The percent enhancement of thymidine incorporation was used as the measure of cell proliferation. The lower the percentage of thymidine incorporation, the lower the rate of cell proliferation. Inhibition of EGF-induced cell proliferation by the foregoing compounds is reflected in Table II. Table III gives the inhibition of TGFα-induced cell proliferation.

[3] = system: LE II cells; experiment: Inhibition of TGFα-induced cell proliferation ([3H]-methylthymidine incorporation); format: cell-based, Murine; conditions: induced by 2 × 10^-9 M TGFα; for % of thymidine incorporation: control 420 ± 30
Experimental: as §1, §2

[4] = system: rabbit anti-TGF α-KLH IgG; experiment: Competitive radioimmunoassay: iodinated rabbit anti-TGF α-KLH IgG preincubated with inhibitor, then bound to BSA-peptide complex coated wells; format: binding; conditions: no inhibitor 8400 ± 600 cpm
Experimental: A. Rabbit IgG antibodies to the compound [drawing 24] (anti-TGF α-KLH), as prepared in accordance with Example 7, were iodinated by the chloramine-T method. To 1 mg anti-TGF α-KLH antibody in 0.2M phosphate buffer (pH 7.6) was added 20 μl of a 2 mg/ml solution of chloramine-T and 1mCiNa^125 I for 3 minutes at room temperature. 1 mg KI was added and excess free iodine removed by chromatography on a Sephadex G-50 column. The specific activity of the antibodies varied between 200,000 and 400,000 counts per minute (cpm)/μg protein. Flexible polyvinylchloride plates were coated with a 1 mg/ml solution of BSA-peptide complex (prepared in accordance with Example 6A) in phosphate buffered saline (PBS) for 16 hours at 4° C. Plates were countered with a solution containing BSA and 1% Bovine gamma globulin.
These solutions were then added to the coated wells for an additional 2 hours at 37° C. After several washes with PBS containing 0.1% BSA, individual wells were cut apart and counted in a gamma counter.

## CC(C)[C@@H]1NC(=O)CNC(=O)[C@H](C(C)C)NC(=O)[C@H](Cc2ccc(O)cc2)NC(=O)CNC(=O)[C@H](CO)NC(=O)[C@H](Cc2c[nH]cn2)NC(=O)[C@@H](N)CSSC[C@@H](C(=O)O)NC(=O)[C@H](CCCNC(=N)N)NC1=O [Peptide 1] (H-CHSGYVGVRC-OH; disulfide 1-10)
[1]
  apparent association constant for EGF: 1.5e+10 M⁻¹
[2]; peptide 10^-5 M
  % Enhancement of thymidine incorporation, second figure relative to control = 100 (ratio of TGF α fragment/EGF counts per minute): 70%
  % Enhancement of thymidine incorporation: 265 ± 15%
[2]; peptide 10^-6 M
  % Enhancement of thymidine incorporation, second figure relative to control = 100 (ratio of TGF α fragment/EGF counts per minute): 95%
  % Enhancement of thymidine incorporation: 360 ± 20%
[2]; peptide 10^-7 M
  % Enhancement of thymidine incorporation, second figure relative to control = 100 (ratio of TGF α fragment/EGF counts per minute): 103%
[3]; peptide 10^-5 M
  % of thymidine incorporation, second figure relative to control = 100: 79%
  % of thymidine incorporation: 330 ± 10%
[3]; peptide 10^-6 M
  % of thymidine incorporation, second figure relative to control = 100: 95%
  % of thymidine incorporation: 400 ± 20%
[3]; peptide 10^-7 M
  % of thymidine incorporation, second figure relative to control = 100: 95%
  % of thymidine incorporation: 400 ± 20%

## TGFα: native human transforming growth factor alpha, used as inhibitor in the radioimmunoassay
[4]; inhibitor 1 ng/ml
  cpm of iodinated anti-TGF α-KLH IgG bound to coated wells: 8600 ± 800 cpm
[4]; inhibitor 10 ng/ml
  cpm of iodinated anti-TGF α-KLH IgG bound to coated wells: 7600 ± 400 cpm
[4]; inhibitor 100 ng/ml
  cpm of iodinated anti-TGF α-KLH IgG bound to coated wells: 5100 ± 700 cpm
[4]; inhibitor 1000 ng/ml
  cpm of iodinated anti-TGF α-KLH IgG bound to coated wells: 3800 ± 400 cpm

## H-Cys-His-Ser-Gly-Tyr-Val-Gly-Val-Arg-Cys-OH (H-CHSGYVGVRC-OH; disulfide 1-10 (inferred)) [TGFα fragment peptide]
[1]; one hour, 0.51±0.03 nM in its absence
  extrapolated saturation binding of 125I-EGF: 0.5 ± 0.02 nM

## CC(C)[C@@H]1NC(=O)[C@H](Cc2ccc(O)cc2)NC(=O)CNC(=O)[C@H](CO)NC(=O)[C@H](Cc2c[nH]cn2)NC(=O)[C@@H](N)CSSC[C@@H](C(=O)O)NC(=O)[C@H](CCCNC(=N)N)NC(=O)[C@H](C)NC(=O)CNC1=O [Peptide 2] (H-CHSGYVGARC-OH; disulfide 1-10)
[1]
  apparent association constant for EGF: 1.5e+10 M⁻¹
[2]; peptide 10^-5 M
  % Enhancement of thymidine incorporation, second figure relative to control = 100 (ratio of TGF α fragment/EGF counts per minute): 64%
  % Enhancement of thymidine incorporation: 245 ± 25%
[2]; peptide 10^-6 M
  % Enhancement of thymidine incorporation, second figure relative to control = 100 (ratio of TGF α fragment/EGF counts per minute): 97%
  % Enhancement of thymidine incorporation: 370 ± 15%
[2]; peptide 10^-7 M
  % Enhancement of thymidine incorporation, second figure relative to control = 100 (ratio of TGF α fragment/EGF counts per minute): 100%
  % Enhancement of thymidine incorporation: 380 ± 20%

## EGF: epidermal growth factor
[4]; inhibitor 10 ng/ml
  cpm of iodinated anti-TGF α-KLH IgG bound to coated wells: 8800 ± 400 cpm
[4]; inhibitor 100 ng/ml
  cpm of iodinated anti-TGF α-KLH IgG bound to coated wells: 8200 ± 500 cpm
[4]; inhibitor 1000 ng/ml
  cpm of iodinated anti-TGF α-KLH IgG bound to coated wells: 7600 ± 800 cpm
[4]; inhibitor 10,000 ng/ml
  cpm of iodinated anti-TGF α-KLH IgG bound to coated wells: 7800 ± 600 cpm
